According to ChEMBL document CHEMBL3217691, “Discovery and optimization of efficacious neutral 4-amino-6-biphenyl-7,8-dihydropyrimido[5,4-f][1,4]oxazepin-5-one diacylglycerol acyl transferase-1 (DGAT1) inhibitors” (Medchemcomm, 2013):

Columns and labels:
[1] = in vitro; details: rat, hepatocytes
[2] = physchem; details: buffer, pH 7.4
[3] = Oral bioavailability in Han Wistar rat at 2.3 to […]; assay type: ADME, organism-based; details: in vivo
[4] = in vitro; details: human, Caco-2
[5] = in vivo; details: Han Wistar, rat, iv
[6] = Oral bioavailability in dog at 0.5 mg/kg; assay type: ADME, organism-based, Canis lupus familiaris; details: in vivo
[7] = Oral bioavailability in mouse at 2 mg/kg; assay type: ADME, organism-based; details: in vivo
[8] = Oral bioavailability in rat at 2 mg/kg; assay type: ADME, organism-based; details: in vivo
[9] = Half life in rat at 2 mg/kg, po; assay type: ADME, organism-based; parameters: dose 2 mg/kg, route oral; details: in vivo
[10] = Half life in mouse at 2 mg/kg, po; assay type: ADME, organism-based; parameters: dose 2 mg/kg, route oral; details: in vivo
[11] = Half life in dog at 0.5 mg/kg, iv; assay type: ADME, organism-based, Canis lupus familiaris; parameters: dose 0.5 mg/kg, route intravenous; details: in vivo
[12] = Half life in rat at 1 mg/kg, iv; assay type: ADME, organism-based; parameters: dose 1 mg/kg, route intravenous; details: in vivo
[13] = Half life in mouse at 2 mg/kg, iv; assay type: ADME, organism-based; parameters: dose 2 mg/kg, route intravenous; details: in vivo
[14] = system: Canis familiaris; experiment: Volume of distribution at steady state in dog plasma at 0.5 mg/kg, iv and po; assay type: ADME, organism-based, Canis lupus familiaris; parameters: dose 0.5 mg/kg, route oral; details: in vivo
[15] = Volume of distribution at steady state in rat plasma at 1 mg/kg, iv and 2 mg/kg, po; assay type: ADME, organism-based; details: read-out: Vdss
[16] = system: Mus musculus; experiment: Volume of distribution at steady state in mouse plasma at 2 mg/kg, iv and po; assay type: ADME, organism-based; parameters: dose 2 mg/kg, route oral; details: in vivo
[17] = Clearance in rat plasma at 1 mg/kg, iv and 2 mg/kg, po; assay type: ADME, organism-based

| SMILES | hepatocyte CLint [1] | logD [2] | bioavailability ([3]; at 2.3 to […]) | Papp A→B [4] | other results |
| --- | --- | --- | --- | --- | --- |
| Nc1ncnc2c1C(=O)N(c1ccc(-c3ccc(CC(=O)O)cc3Cl)cc1)CCO2 | 14 µL/min/1e6 cells | -0.4 | – | – | – |
| NC(=O)Cc1ccc(-c2ccc(N3CCOc4ncnc(N)c4C3=O)cc2)c(Cl)c1 | 35 µL/min/1e6 cells | 1.3 | – | – | – |
| Nc1ncnc2c1C(=O)N(c1ccc(-c3ccc(CC(=O)N4CC[C@@H](O)C4)cc3Cl)cc1)CCO2 | – | 1.1 | 15% | 1.1 ×10⁻⁶ cm/s | – |
| Nc1ncnc2c1C(=O)N(c1ccc(-c3ccc(CC(=O)N4CC(O)C4)cc3Cl)cc1)CCO2 | < 3.1 µL/min/1e6 cells | 1.1 | – | – | – |
| Nc1ncnc2c1C(=O)N(c1ccc(-c3ccc(CC(=O)N4CCNC(=O)C4)cc3Cl)cc1)CCO2 | – | 0.9 | 3% | – | – |
| CS(=O)(=O)Cc1ccc(-c2ccc(N3CCOc4ncnc(N)c4C3=O)cc2)c(Cl)c1 | < 2.8 µL/min/1e6 cells | – | 61% | – | clearance [5]: 5 mL/min/kg |
| CC(=O)N(C)Cc1ccc(-c2ccc(N3CCOc4ncnc(N)c4C3=O)cc2)c(Cl)c1 | 11 µL/min/1e6 cells | 1.9 | – | 19.7 ×10⁻⁶ cm/s | – |
| CC(=O)NCc1ccc(-c2ccc(N3CCOc4ncnc(N)c4C3=O)cc2)c(Cl)c1 | – | 1.8 | 100% | 14.5 ×10⁻⁶ cm/s | – |
| CN(Cc1ccc(-c2ccc(N3CCOc4ncnc(N)c4C3=O)cc2)c(Cl)c1)S(C)(=O)=O | 5.9 µL/min/1e6 cells | – | 28% | – | clearance [5]: 5 mL/min/kg |
| CS(=O)(=O)NCc1ccc(-c2ccc(N3CCOc4ncnc(N)c4C3=O)cc2)c(Cl)c1 | – | 1.8 | 21% | 11.3 ×10⁻⁶ cm/s | – |
| Nc1ncnc2c1C(=O)N(c1ccc(-c3ccc(Cn4cccnc4=O)cc3Cl)cc1)CCO2 | 18.4 µL/min/1e6 cells | – | – | – | – |
| Nc1ncnc2c1C(=O)N(c1ccc(-c3ccc(CN4CC[C@H](O)C4=O)cc3Cl)cc1)CCO2 | < 2 µL/min/1e6 cells | 1.1 | – | 6.4 ×10⁻⁶ cm/s | – |
| CN(Cc1ccc(-c2ccc(N3CCOc4ncnc(N)c4C3=O)cc2)c(Cl)c1)C(=O)CN | 4.9 µL/min/1e6 cells | 0.1 | – | 0.2 ×10⁻⁶ cm/s | – |
| CN(Cc1ccc(-c2ccc(N3CCOc4ncnc(N)c4C3=O)cc2)c(Cl)c1)C(=O)CCN | < 2 µL/min/1e6 cells | -0.5 | – | 0.3 ×10⁻⁶ cm/s | – |
| CN(Cc1ccc(-c2ccc(N3CCOc4ncnc(N)c4C3=O)cc2)c(Cl)c1)C(=O)CCCN | < 2 µL/min/1e6 cells | -1 | – | 0.2 ×10⁻⁶ cm/s | – |
| Nc1ncnc2c1C(=O)N(c1ccc(-c3ccccc3Cl)cc1)CCO2 | 11.1 µL/min/1e6 cells | 2.9 | 65% | 32.5 ×10⁻⁶ cm/s | clearance [5]: 21 mL/min/kg |
| N#Cc1ccc(-c2ccc(N3CCOc4ncnc(N)c4C3=O)cc2)c(Cl)c1 | 4.8 µL/min/1e6 cells | 2.4 | – | 48.2 ×10⁻⁶ cm/s | – |

| SMILES | hepatocyte CLint [1] | logD [2] | bioavailability ([3]; at 2.3 to […]) | Papp A→B [4] | other results |
| --- | --- | --- | --- | --- | --- |
| Cc1ccc(-c2ccc(N3CCOc4ncnc(N)c4C3=O)cc2)c(Cl)c1 | – | 3.5 | 14% | 16.6 ×10⁻⁶ cm/s | – |
| Nc1ncnc2c1C(=O)N(c1ccc(-c3ccc(CO)cc3Cl)cc1)CCO2 | – | – | – | 16.8 ×10⁻⁶ cm/s | – |
| Nc1ncnc2c1C(=O)N(c1ccc(-c3ccc(C(F)F)cc3Cl)cc1)CCO2 | – | 3.2 | 150% | – | – |
| Nc1ncnc2c1C(=O)N(c1ccc(-c3ccc(Cl)cc3Cl)cc1)CCO2 | – | > 3.9 | – | – | bioavailability [3]: 87% |
| Nc1ncnc2c1C(=O)N(c1ccc(-c3cccc(Cl)c3Cl)cc1)CCO2 | 9.3 µL/min/1e6 cells | 3.8 | 150% | – | clearance [5]: 24 mL/min/kg |
| N#Cc1cccc(-c2ccc(N3CCOc4ncnc(N)c4C3=O)cc2)c1Cl | 4.6 µL/min/1e6 cells | 2.5 | – | 54.8 ×10⁻⁶ cm/s | – |
| Nc1ncnc2c1C(=O)N(c1ccc(-c3cc(Cl)ccc3Cl)cc1)CCO2 | 9.5 µL/min/1e6 cells | 3.7 | 110% | 16.2 ×10⁻⁶ cm/s | clearance [5]: 12 mL/min/kg |
| Nc1ncnc2c1C(=O)N(c1ccc(-c3ccccc3)cc1)CCO2 | – | 2.4 | – | > 10 ×10⁻⁶ cm/s | – |
| Cc1ccccc1-c1ccc(N2CCOc3ncnc(N)c3C2=O)cc1 | – | 2.7 | – | > 10 ×10⁻⁶ cm/s | – |
| Nc1ncnc2c1C(=O)N(c1ccc(-c3c(F)cccc3F)cc1)CCO2 | – | 2.5 | – | > 10 ×10⁻⁶ cm/s | – |
| Nc1ncnc2c1C(=O)N(c1ccc(-c3ccccc3Cl)c(F)c1)CCO2 | – | 3 | 14% | > 10 ×10⁻⁶ cm/s | clearance [5]: 18 mL/min/kg |
| Cc1cccc(Cl)c1-c1ccc(N2CCOc3ncnc(N)c3C2=O)cc1 | – | 3.4 | – | > 10 ×10⁻⁶ cm/s | – |
| Nc1ncnc2c1C(=O)N(c1ccc(-c3c(F)cccc3F)c(F)c1)CCO2 | – | 2.9 | – | > 10 ×10⁻⁶ cm/s | – |
| Nc1ncnc2c1C(=O)N(c1ccc(-c3ncccc3Cl)cc1)CCO2 | – | 1.5 | 68% | > 10 ×10⁻⁶ cm/s | – |
| N#Cc1cccc(Cl)c1-c1ccc(N2CCOc3ncnc(N)c3C2=O)cc1 | – | 2.1 | – | > 10 ×10⁻⁶ cm/s | – |
| Nc1ncnc2c1C(=O)N(c1ccc(-c3ccccc3F)cc1)CCO2 | < 2 µL/min/1e6 cells | – | 93% | > 10 ×10⁻⁶ cm/s | bioavailability [6]: 76%; bioavailability [7]: > 100%; bioavailability [8]: 93%; half-life [9]: 3.3 h; half-life [10]: 3.1 h; half-life [11]: 1.2 h; half-life [12]: 6.7 h; half-life [13]: 3.5 h; Vdss [14]: 2.4 L/kg; Vd [15]: 1.9 L/kg; Vdss [16]: 0.6 L/kg; clearance [17]: 7.3 mL/min/kg; clearance [5]: 7 mL/min/kg |
